≈ marks a conversion by molar mass, not a printed value. Where “and” joins values, the source holds several entries; their conditions need not be identical. Identical values can stand only once. Like-named read-outs stand apart in the source and are kept apart here.
How the values were obtained:
[1] = system: Staphylococcus aureus MRSA; assay: microbe, parasite or virus in culture; type: cell-based
[2] = system: Streptococcus pyogenes ATCC 51878; assay: MIC determination; type: cell-based; conditions: Streptococcus pyogenes, ATCC51878
[3] = system: Enterococcus faecalis; assay: MIC determination; type: cell-based
[4] = system: Staphylococcus epidermidis ATCC 14990; assay: MIC determination; type: cell-based; conditions: Staphylococcus epidermidis, ATCC14990
[5] = system: Staphylococcus epidermidis ATCC 12228; assay: MIC determination; type: cell-based; conditions: Staphylococcus epidermidis, ATCC12228
[6] = system: E. faecium 3303; assay: microbe, parasite or virus in culture; type: cell-based, Enterococcus faecium; conditions: E. faecium 3303; for Max. fold change in MIC: decrease; for MIC Alone: compound alone in checkerboard
From the text: In therapeutic applications, synergy between active ingredients occurs when an observed combined therapeutic effect is greater than the sum of therapeutic effects of individual active ingredients, or a new therapeutic effect is produced that the active ingredients could not produce alone. […] In this context, the enhancement of therapeutic effect may take the form of increased efficacy or potency and/or decreased adverse effects. The synergistic effect may be mediated in whole or in part by the pharmacokinetics and/or pharmacodynamics of the active ingredients in a subject, so that the amount and proportion of the ingredients in the formulation may be synergistic in vivo. This in vivo synergy may be effected with a formulation that includes the active ingredients in amounts and proportions that are also synergistic in in vitro assays of efficacy. As used herein, the term “synergistically effective amounts” accordingly refers to amounts that are synergistic in vivo and/or in vitro. A numeric quantification of synergy is often expressed as a fractional inhibitory concentration index (FICI), which represents the sum of the fractional inhibitory concentrations (FICs) of each drug tested, where the FIC is determined for each drug by dividing the minimum inhibitory concentration (MIC, the lowest concentration of the drug which prevents visible growth of the bacterium in a standard in vitro assay-standard colorometric assay based on resazurin) of each drug when used in combination by the MIC of each drug when used alone. In very general terms, a FICI lower or higher than 1 indicates positively correlated activity (at least additive or potentiation) or an absence of positive interactions, respectively. More definitively, synergy of two compounds may be conservatively defined as a FICI of ::::0.5 (see Odds, 2003; with additivity or potentiation corresponding to a FICI of >0.5 to ::::0.75; no interaction (indifference) corresponding to a FICI of >1 to ::::4; and antagonism corresponding to a FICI of >>4). Synergy of three compounds has been defined as a FICI of ::::1.0. (Berenbaum, 1978; Yu et al., 1980). To estimate the optimal concentrations in triple combinations, the optimal concentrations of trans-caryophyllene and cannabinoid were utilized in combination with a series of daptomycin dilutions.
(§1) Pre-cultures of bacteria growing in their corresponding liquid media (defined below) were diluted to an 00600 of 0.0025 and 100 μl was added to 100 μl of medium containing serial 2-fold dilutions of cannabinoid (cannabinoid stocks, in methanol or acetonitrile for acidic forms, were diluted in growth medium) in 96-well plates. Plates were then incubated for 20-24 h at 37° C., and growth was recorded as 00600 in a Thermo Scientific™ Varioskan™ Flash Multimode Reader.
Method for Tables 4-7. Interaction of Cannabinoids CBC, CBD and CBG with Terpenes and Daptomycin:
(§2) FICI values was determined in a 96 well checkerboard format using the MIC assay for cannabinoids (compound A), terpenes (compound B), and daptomycin (compound C) alone and in combinations. Terpene stocks were prepared in DMSO and diluted in the growth medium. The fractional inhibitory concentration for each compound was calculated as follows: FICA=(MIC of compound A in the presence of compound B)/(MIC of compound A alone). Similarly, the FICs for compounds Band C were calculated. The FICI was calculated as FICA plus FICs plus FICc.

[7] = system: E. faecium VRE 55A6; assay: microbe, parasite or virus in culture; type: cell-based, Enterococcus faecium
From the text: In therapeutic applications, synergy between active ingredients occurs when an observed combined therapeutic effect is greater than the sum of therapeutic effects of individual active ingredients, or a new therapeutic effect is produced that the active ingredients could not produce alone. […] In this context, the enhancement of therapeutic effect may take the form of increased efficacy or potency and/or decreased adverse effects. The synergistic effect may be mediated in whole or in part by the pharmacokinetics and/or pharmacodynamics of the active ingredients in a subject, so that the amount and proportion of the ingredients in the formulation may be synergistic in vivo. This in vivo synergy may be effected with a formulation that includes the active ingredients in amounts and proportions that are also synergistic in in vitro assays of efficacy. As used herein, the term “synergistically effective amounts” accordingly refers to amounts that are synergistic in vivo and/or in vitro. A numeric quantification of synergy is often expressed as a fractional inhibitory concentration index (FICI), which represents the sum of the fractional inhibitory concentrations (FICs) of each drug tested, where the FIC is determined for each drug by dividing the minimum inhibitory concentration (MIC, the lowest concentration of the drug which prevents visible growth of the bacterium in a standard in vitro assay-standard colorometric assay based on resazurin) of each drug when used in combination by the MIC of each drug when used alone. In very general terms, a FICI lower or higher than 1 indicates positively correlated activity (at least additive or potentiation) or an absence of positive interactions, respectively. More definitively, synergy of two compounds may be conservatively defined as a FICI of ::::0.5 (see Odds, 2003; with additivity or potentiation corresponding to a FICI of >0.5 to ::::0.75; no interaction (indifference) corresponding to a FICI of >1 to ::::4; and antagonism corresponding to a FICI of >>4). […] (Berenbaum, 1978; Yu et al., 1980). To estimate the optimal concentrations in triple combinations, the optimal concentrations of trans-caryophyllene and cannabinoid were utilized in combination with a series of daptomycin dilutions.
as §1, §2

[8] = system: E. faecium clinical isolate 58C9 (vancomycin and daptomycin resistant); conditions: for MIC: clinical enterococcal strain 58C9, vancomycin and daptomycin resistant
[9] = system: E. faecium clinical isolate 58C9 (vancomycin and daptomycin resistant); assay: microbe, parasite or virus in culture; conditions: Enterococcus faecium
[10] = pairwise, with trans-caryophyllene
[11] = triple, with daptomycin and trans-caryophyllene
[12] = E. faecium VRE 55A6, compound alone in checkerboard
[13] = E. faecium VRE 55A6, pairwise, with daptomycin
[14] = E. faecium VRE 55A6, pairwise, with trans-caryophyllene
[15] = E. faecium VRE 55A6, triple, with daptomycin and trans-caryophyllene
[16] = triple, with CBC and trans-caryophyllene
[17] = triple, with CBG and trans-caryophyllene
[18] = E. faecium VRE 55A6, pairwise, with CBC
[19] = E. faecium VRE 55A6, pairwise, with CBD
[20] = E. faecium VRE 55A6, pairwise, with CBG
[21] = E. faecium VRE 55A6, text b61, Table 7D
[22] = E. faecium VRE 55A6, triple, with CBC and trans-caryophyllene
[23] = E. faecium VRE 55A6, triple, with CBD and trans-caryophyllene
[24] = E. faecium VRE 55A6, triple, with CBG and trans-caryophyllene

## CCCCCc1cc(O)c(C/C=C(\C)CCC=C(C)C)c(O)c1 [CBG, cannabigerol]
[1]
  MIC: 1 µg/mL (≈ 3.16 µM)
[2]
  MIC: 1 µg/mL (≈ 3.16 µM)
[3]
  MIC: 1 µg/mL (≈ 3.16 µM)
[4]
  MIC: 1 to 2 µg/mL (≈ 3.16 to 6.32 µM)
[5]
  MIC: 2 µg/mL (≈ 6.32 µM)
[6]; pairwise, with daptomycin
  MIC In combination: 0.125 mg/L
  Max. fold change in MIC: 32″′ fold
[6]; [10]
  MIC In combination: 0.125 mg/L
  Max. fold change in MIC: 16″′ fold
[6]; [11]
  MIC In combination: 0.25 mg/L
  Max. fold change in MIC: 4 fold
[7]; [12]
  MIC Alone: 2 mg/L
[7]; [13]
  MIC In combination: 2 mg/L
  Max. fold change in MIC: 2 fold
[7]; [14]
  MIC In combination: 2 mg/L
  Max. fold change in MIC: none
[7]; [15]
  MIC In combination: 0.5 mg/L
  Max. fold change in MIC: 4 fold
[7]; Enterococcus faecium, VRE, read-out: MIC Alone, E. faecium VRE 55A6, compound alone in checkerboard
  MIC: 4 µg/mL
[8]; E. faecium isolate 58c9
  Fold reduction in daptomycin MIC in combination with the cannabinoid: 64 Fold
[9]
  MIC: 1 µg/mL (≈ 3.16 µM)

## CCCCCCCCCC(=O)N[C@@H](Cc1c[nH]c2ccccc12)C(=O)N[C@H](CC(N)=O)C(=O)N[C@@H](CC(=O)O)C(=O)N[C@@H]1C(=O)NCC(=O)N[C@@H](CCCN)C(=O)N[C@@H](CC(=O)O)C(=O)N[C@H](C)C(=O)N[C@@H](CC(=O)O)C(=O)NCC(=O)N[C@H](CO)C(=O)N[C@@H]([C@H](C)CC(=O)O)C(=O)N[C@@H](CC(=O)c2ccccc2N)C(=O)O[C@@H]1C [Daptomycin, daptomycin, reference compound]
[6]
  MIC Alone: 8 mg/L
[6]; listed as daptomycin
  MIC Alone: 4 mg/L
[6]; pairwise, with CBC
  MIC In combination: 0.03125 mg/L
  Max. fold change in MIC: 128 l fold
[6]; pairwise, with CBC, listed as daptomycin
  Max. fold change in MIC: 128 fold
[6]; pairwise, with CBD
  MIC In combination: 0.25 mg/L
  Max. fold change in MIC: 16″′ fold
[6]; pairwise, with CBG
  MIC In combination: 0.25 mg/L
  Max. fold change in MIC: 32″′ fold
[6]; [10]
  MIC In combination: 0.5 mg/L
  Max. fold change in MIC: 8 l fold and 8″′ fold
[6]; text b61, Table 5
  MIC of daptomycin (alone): 8 µg/mL
  MIC of daptomycin in the presence of CBO and trans caryophyllene: 0.03 µg/mL
[6]; [16]
  MIC In combination: 4 mg/L
  Max. fold change in MIC: 2 l fold
[6]; triple, with CBD and trans-caryophyllene
  MIC In combination: 0.03 mg/L
[6]; triple, with CBD and trans-caryophyllene, listed as daptomycin
  Max. fold change in MIC: 256 fold
[6]; [17]
  MIC In combination: 2 mg/L
  Max. fold change in MIC: 4 l fold
[7]; [12]
  MIC Alone: 16 mg/L and >16 mg/L
[7]; [18]
  MIC In combination: 0.031 mg/L
  Max. fold change in MIC: 512 fold
[7]; [19]
  MIC In combination: 1 mg/L
  Max. fold change in MIC: 16 fold
[7]; [20]
  MIC In combination: 4 mg/L
  Max. fold change in MIC: 4 fold
[7]; [14]
  MIC In combination: 8 mg/L
  Max. fold change in MIC: 2 fold
[7]; [21]
  MIC of daptomycin (alone): > 16 µg/mL
  MIC of daptomycin in the presence of CBC and trans caryophyllene: 0.03 µg/mL
[7]; [22]
  MIC In combination: 0.03 mg/L
  Max. fold change in MIC: >512 fold
[7]; E. faecium VRE 55A6, triple, with CBC and trans-caryophyllene, listed as daptomycin
  Max. fold change in MIC: > 512 fold
[7]; [23]
  MIC In combination: 2 mg/L
  Max. fold change in MIC: >8 fold
[7]; [24]
  MIC In combination: 2 mg/L
  Max. fold change in MIC: >8 fold
[8]
  MIC: 8 mg/L (≈ 4.94 µM)
[8]; listed as daptomycin
  MIC: 4 mg/L (≈ 2.47 µM)

— patent publication US11744819B2, “Antibiotic cannabinoid-terpene formulations” (priority 2019, dated 2023)
